From publication PMC10590756, “Glutarate regulates T cell metabolism and anti-tumour immunity” (Nature Metabolism, 2023) come the findings set out here.

One data set relates to murine CD8^+ T cells. The data set is described as follows: Cell growth and viability of murine CD8^+ T cells. In kind it is cell-based. As to conditions: 7 days. As for the experimental part: After 7 days of culture, we assessed the abundance of CD62L^hiCD44^hi (TCM-like) T cells by flow cytometry (Fig. 1a). We additionally determined the effect of each compound on cell growth and viability (Fig. 1b and Extended Data Fig. 1a).
B16F10 cells were originally purchased from ATCC (catalogue no. CRL-6475) and genetically modified to express OVA, enhanced green fluorescent protein (GFP) and neomycin phosphotransferase. The resulting OVA expression B16F10-OVA cells were cultured in DMEM (catalogue no. 11995065, Thermo Fisher Scientific) containing 0.75 mg ml^−1 G418 sulphate (catalogue no. 10131027, Thermo Fisher Scientific). HEK 293T cells were purchased from Takara Bio (catalogue no. 632180) and cultured in DMEM. SKOV3 was purchased from ATCC (catalogue no. HTB-77) and cultured in McCoy’s 5A (Modified) Medium (catalogue no. 16600082, Thermo Fisher Scientific). Raji-GFP-Luc cells were purchased from Biocytogen (catalogue no. B-HCL-010) and cultured in Roswell Park Memorial Institute (RPMI) 1640 (catalogue no. 21875, Thermo Fisher Scientific). Jurkat cells were purchased from ATCC (catalogue no. TIB-152) and cultured in RPMI 1640. RAW 264.7 cells were purchased from ATCC (catalogue no. TIB-71) and cultured in RPMI 1640. HeLa cells were a gift from P. Lehner (University of Cambridge) and were authenticated using short tandem repeat profiling (Eurofins Genomics). HeLa cells were cultured in DMEM. MEFs were isolated from macerated embryonic day (E) 12.5–13.5 embryos. A whole litter of embryos without sex selection were used. Stable transfection with SV40 large T antigen passage 3 was used for immortalization. Cells were subcultured over 17 more passages and maintained in DMEM[63]. All media was supplemented with 10% FCS (catalogue no. 10270106, Gibco), 100 U ml^−1 penicillin and 100 µg ml^−1 streptomycin (catalogue no. P4333, Sigma-Aldrich). […] Cell number and viability was determined using the ADAM-MC Automated Cell Counter (NanoEntek), CellDrop Automated Cell Counter (DeNovix) or TC20 Automated Cell Counter (Bio-Rad Laboratories). […]

In data set [1] the test system is H3 lysine methylation in human CD8^+ T cells. Nature of the data set: Histone 3 methylation western blot. In kind it is cell-based. As to conditions: 7 days. The protocol:
Histones were extracted with the Histone Extraction Kit (catalogue no. ab113476, Abcam). Proteins were separated by SDS–PAGE and transferred to polyvinylidene fluoride (PVDF) membranes. Total protein stain was obtained using non-stain protein labelling reagent (catalogue no. A44448, Thermo Fisher Scientific). Membranes were then blocked in 5% milk prepared in PBS plus 0.05% Tween-20, incubated with primary antibodies overnight at 4 °C and horseradish peroxidase (HRP)-conjugated secondary antibodies (catalogue nos. HAF008 and HAF007, R&D Systems) for 1 h the next day. After enhanced chemiluminescence (ECL) exposure (catalogue no. GERPN2106, Sigma-Aldrich), membranes were imaged using an iBrightCL1000 (Thermo Fisher Scientific). […] 13998); and anti-H3k27ac (catalogue no.
For orientation: In western blotting, separated proteins are transferred to a membrane and probed.

As for `CCCCCCCCOC(=O)[C@@H](O)CCC(=O)[O-].[Na+]` [octyl ester S-2HG, (2S)-2-hydroxyglutaric acid octyl ester sodium salt, reference compound], the “concentration from which cell growth is decreased” value with murine CD8^+ T cells is ≥ 400 µM.

In the case of `O=C(O)CCC(=O)C(=O)O` [αKG, α-ketoglutarate, reference compound], the “H3K9me2 levels on addition of αKG to DEG” value in data set [1] (500 µM αKG with 500 µM DEG) is recorded as “not reduced”. The “DEG-induced increase in H3K9 and H3K27 trimethylation on addition of αKG” value in data set [1] (equimolar αKG (500 µM) with 500 µM DEG) is “abrogated”.
